Experimental data taken from patent US9650405B2, “Modified sophorolipids as oil solubilizing agents” (Polytechnic Institute of New York University, priority 2010, dated 2017).
Like-named read-outs stand apart in the source and are kept apart here. Values belong to the compound of their own block, whether it stands above or below them.

Assays:
[1] = Emulsion type: dilution test and oil soluble dye staining; type: physicochemical; settings: for emulsion type by Oil Red O staining: 2%-by-weight relative to water phase, oil/water 5/5 and 7/3
Protocol: In this test the emulsion is diluted either with oil (O) or water (W). If the emulsion is O/W type and it is diluted with water, it will remain stable as water is the dispersion medium. However, if the emulsion is O/W type and it is diluted with oil, the emulsion will break as oil and water are not miscible with each other. […] Emulsions of the O/W type have separated layers after dilution with pure oil but form a homogenous phase when diluted by water. Unless otherwise specified, the emulsion type formed by MSLs were oil in water.
In FIG. 13B, the tube on the left was diluted with 1 mL of oil whereas the tube on right was diluted with water. Visual observation of the tubes in FIG. 13B supports that the emulsions formed are indeed O/W emulsions.
Oil Red O was applied as an oil soluble dye and emerald green as water soluble dye in the process of emulsion preparation. Observations of emulsions were made before and after staining under optical microscope at 400× magnification (FIG. 14). […] The formation of O/W emulsions and not W/O emulsions with this set of MSL compounds would not be obvious to one skilled in the art. We believe that O/W emulsions are formed by this set of MSLs due to that large sophorose polar head groups requires relatively more space than the lipid tails and, therefore self-assemble into spherical type structures where disaccharide groups are locating outside the droplets.

[2] = Emulsion stability based on phase separation; type: physicochemical; settings: for emulsion layer percentage: paraffin oil/water 5/5, 2%-by-weight emulsifier, after 24 hours at 25° C.
Protocol: The emulsion was obtained by homogenizing the oil and water mixture and was allowed to settle at room temperature for 24 hours. […] Then, this mixture was homogenized at 13,000 rpm for 2 minutes. Thereafter, the resulting emulsion was left unagitated at 25° C. for 24 hours. Surfactants which give a larger emulsion phase are denoted as having higher emulsion effectiveness (Process Safety and Environment protection, 2005, 83, 38-46). […] Thus, unexpectedly, that longer alkyl chains, at least up to butyl and hexyl, provided improved interfacial stability at the paraffin oil/water interface. […] Apparently, ester bonds of SL-esters are less disruptive to organization at the oil water interface than amide bonds of SL-amides. […] The acidic SL (3) gave an 8% emulsion layer, much lower than the MSL examples given herein. Similarly, the natural SL (1) mixture gave a 10% emulsion layer. This performance is also far below that of SL-butyl amide (24), hexyl amide (25), butyl ester (8) and hexyl ester (16).
After homogenized at 13,000 rpm for 2 minutes, the emulsions were kept at room temperature and separation of the respective oil, emulsion and water layers was recorded for up to 1 month.

[3] = Surface tension versus surfactant concentration: CMC and minimum surface tension; type: physicochemical; settings: SL-amides; 25° C.
Protocol: The surface tension change with the increase of surfactant concentration of a series of SL amides was measured at 25° C. and the results are shown in Table 2. CMC and minimum surface tension (MST) decrease as the chain length of the n-alkyl amide moiety increase. […] This trend can be explained by the increased hydrophobicity of the surfactant hydrophobic tail with increased chain length of the n-alkyl amide.
The relation of CMC within a homologous series of surfactants and the carbon chain length (straight-chain), n, is usually described as: Log (CMC)=A−Bn (1)
Where A and B are constants specific to the series and n is the carbon on the hydrophobic chains. It was reported that the CMC of alkyl-β-D-glucoside decreased by ⅓ for each additional CH2 group (L. Zhang. D.E.S. Thesis, Columbia University). For a series of SL-esters prepared from n-alkanols of varying chain length, the CMC decreased by ½ per additional CH2 group (L. Zhang Colloid Surface, 240, 2004, 75).

[4] = Solubility of MSLs in water
Description: If the material precipitates upon cooling or was to some extent insoluble, the insoluble material was separated by filtration, dried and weighed.

[5] = Emulsion droplet size distribution, Coulter LS 230 analyzer; type: physicochemical; settings: paraffin oil-to-water 7:3 v/v, 25° C.
Protocol: Emulsified oil droplet size (average and standard deviation) was measured after suitable dilution of the emulsion phase using a Coulter LS 230 analyzer. […] Relative to natural and lactonic SL, selected MSLs show improved properties as emulsifiers on paraffin oil.
After being aged for 3-months, emulsified oil droplet size (average and standard deviation) was measured after suitable dilution of the emulsion phase using a Coulter LS 230 analyzer and the results are listed in Table 5. […] However, increasing the surfactant concentration from 1 to 2% did result in substantially smaller emulsion-phase droplet sizes. […] This is evidence that MSL's can stabilize oil phases greatly decreasing their tendency to undergo coalescence. […] It follows that the results of 3-month aging studies support the utility of selected MSLs for formation and stabilization of oil-in-water emulsions of paraffin oil phases. One skilled in the art would expect that the ability of these MSLs to stabilize paraffin oil phases teaches that they would also stabilize oil phases of similar structure.

[6] = Solubility in distilled water without additives, compounds alone and mixed; settings: without any additives
[7] = SL-esters; from earlier publication in Colloids and surfaces, 2004, 240, 75; cited from earlier work
[8] = Crude oil clearing/displacement activity; settings: 20 μL of 1 mg/mL solution
Protocol: Oil cleaning assays were performed using Louisiana Crude, Arabian Light Crude, and Prudhoe Bay Crude as the oil phase. In one study, the oil clearing/displacement activity of MSLs were assessed using a crude oil layer on top of sea water in order to simulate oil spill type conditions. Sea water (20 mL) was transferred to plastic Petri dishes and 20 μL of a crude oil type was added on top of the water to create an oil layer. Subsequently, a 20 μL aliquot of MSL solution (1 mg/mL) was added dropwise to the top of the oil layer. The instantaneous formation of an oil clearing zone as well as the diameter of the clearing zone was determined as a function of the dispersant used. […] Furthermore, the oil displacement activity of SL-ethyl ester and SL-butyl ester was slightly higher than Triton-X-100 for Arabian Light crude.

[9] = Emulsion viscosity measurement; type: physicochemical; settings: oil/water 7/3, 1% MSL, shear rate 1 S^−1
Protocol: Viscosity was measured at 25° C. with increasing shear rate from 1 S^−1 to 750 S^−1. The viscosity change was monitored for aging times up to 3 months. For all samples, the paraffin oil/water ratio is 7/3 and the surfactant concentrations studied were 0.5%, 1% to 2%-by-weight relative to the oil phase. FIG. 19 presents the viscosity change with shear rate for different aging times. […] The emulsion tested was prepared using 2%-by-weight SL-butyl ester relative to paraffin oil. Viscosity decreases with increased shear rate implying the emulsion follows shear shinning. Furthermore, viscosity decreased with increased storage time. […] This change is consistent with the small increase in oil phase particle size (1.7 to 2.1 μm) with aging from 1 day to 3-months (Tables 4 and 5).
Values of ηlow decreased with storage time to various extents that are dependent on the MSL compound used to stabilize the emulsion. […] The relative ability of different MSL structures to stabilize emulsions and thereby decrease the extent of decrease in viscosity as a function of aging time would not be predictable by one skilled in the art. The behavior as a function of MSL structure is related to emulsion dispersed phase droplet size. That is, the smaller the change in droplet size, the less decrease in emulsion viscosity occurs with increased aging time. Smaller changes in droplet size reflects the ability of the emulsifier to better stabilize particles. For example, the viscosity of the emulsion stabilized by SL-butyl amide decreased by 65% (from 344 Pas to 120 Pas) whereas the viscosity of the emulsion stabilized by SL-hexyl ester decreased by 20% (from 457 Pas to […]).
The viscosity was measured 24 hours after emulsion preparation. The viscosity increased with increasing surfactant concentration. Such behavior could not have been predicted by one skilled in the art without the teaching provided in this disclosure. The extent of viscosity change with surfactant concentration is related to the interfacial free energy at the droplet surface that reduces with the increase of surfactant concentration.

[10] = Crude oil emulsification activity (turbidity at 610 nm); settings: emulsifier 1 mg/mL
Protocol: Emulsification activity was assessed using Louisiana Crude, Arabian Light Crude, and Prudhoe Bay Crude as the oil phase. A 2 mL solution with emulsifier concentration of 1 mg/mL was prepared. A crude oil (10 mg) was added to the emulsifier aqueous solution, the mixture was vortexed for one minute and the emulsified mixture was allowed to stand for 20 minutes. Emulsification activity was determined by measuring turbidity of the emulsion mixture in a spectrophotometer at 610 nm. The results obtained using SL-ethyl ester, SL-butyl ester, the natural sophorolipid mixture and Triton X-100 as emulsifiers are expressed as D610 and are listed in Table 8. […] Furthermore, a remarkable improvement in emulsification activity was obtained for SL-butyl ester relative to the natural sophorolipid mixture. These comparative results for emulsification of Louisiana Crude, Arabian Light Crude, and Prudhoe Bay Crude oil phase could not be anticipated by one skilled in the art.

[11] = Arabian Light Crude on sea water

Compound: CNC(=O)CCCCCCCC=CCCCCCCC(C)OC1OC(CO)C(O)C(O)C1OC1OC(CO)C(O)C(O)C1O (stereo not drawn) [Compound 22, SL-Methyl Amide]
emulsion type by Oil Red O staining [1]: O/W
emulsion layer percentage [2]: no emulsion layer was observed
CMC Range [3]: 650-670 10^−6M
MST (minimum surface tension) [3]: 43.3 mN/m

Compound: CCCCCCNC(=O)CCCCCCCC=CCCCCCCC(C)OC1OC(CO)C(O)C(O)C1OC1OC(CO)C(O)C(O)C1O (stereo not drawn) [Compound 25, SL-Hexyl Amide]
Solubility ([4]; distilled water, 25° C.): <11000 µg/mL
emulsion type by Oil Red O staining [1]: O/W
emulsion type by dilution test ([1]; 2 weight % emulsifier, water/oil ratio 5/5, paraffin): O/W emulsions
emulsion layer volume-%, one month ([2]; oil/water 5/5, 2%-by-weight, one month at room temperature): 10%
emulsion layer volume-%, start ([2]; oil/water 5/5, 2%-by-weight, start of aging): 65%
emulsion layer percentage [2]: 60%
CMC Range [3]: 29-32 10^−6M
MST (minimum surface tension) [3]: 36.5 mN/m
Average droplet size ([5]; 0.5 weight %, 24 hours): 2.7 ± 0.4 μm
Average droplet size ([5]; 0.5 weight %, aged 3-months): 4.0 ± 0.4 μm
Average droplet size ([5]; 1 weight %, 24 hours): 2.7 ± 0.2 μm
Average droplet size ([5]; 1 weight %, aged 3-months): 3.7 ± 0.7 μm
Average droplet size ([5]; 2 weight %, 24 hours): 1.7 ± 0.1 μm
Average droplet size ([5]; 2 weight %, aged 3-months): 2.2 ± 0.5 μm

Compound: COC(=O)CCCCCCCC=CCCCCCCC(C)OC1OC(CO)C(O)C(O)C1OC1OC(CO)C(O)C(O)C1O (stereo not drawn) [Compound 6, SL-Methyl Ester]
Solubility ([4]; distilled water, 25° C.): <1000 µg/mL
Solubility ([4]; distilled water, 25° C., listed as methyl ester): < 1000 µg/mL
emulsion type by Oil Red O staining [1]: O/W
solubility in distilled water [6]: less than 1 mg/L
emulsion layer percentage [2]: no emulsion layer was observed
CMC Range [7]: 95-100 10^−6M
MST (minimum surface tension) [7]: 38.4 mN/m
Oil displacement activity (diameter of the clearing zone) [8, 11]: 5.5 ± 0.1 cm
Oil displacement activity (diameter of the clearing zone) ([8]; Louisiana Crude on sea water): 6.5 ± 0.4 cm
Oil displacement activity (diameter of the clearing zone) ([8]; Prudhoe Bay Crude on sea water): 6.9 ± 0.1 cm

Compound: CCCCNC(=O)CCCCCCCC=CCCCCCCC(C)OC1OC(CO)C(O)C(O)C1OC1OC(CO)C(O)C(O)C1O (stereo not drawn) [Compound 24, SL-Butyl Amide]
Solubility [4]: >40000 µg/mL
emulsion type by Oil Red O staining [1]: O/W
emulsion layer in 3 days ([2]; oil/water 5/5, 2%-by-weight, 3 days): not observed in 3 days
emulsion layer percentage [2]: 20%
low shear emulsion viscosity, after aging period [9]: 120 Pas
low shear emulsion viscosity, before aging [9]: 344 Pas
viscosity decrease over the aging period [9]: 65%
CMC Range [3]: 45-50 10^−6M
MST (minimum surface tension) [3]: 38.7 mN/m
Average droplet size ([5]; 0.5 weight %, 24 hours): 3.0 ± 0.2 μm
Average droplet size ([5]; 0.5 weight %, aged 3-months): 6.3 ± 1.0 μm
Average droplet size ([5]; 1 weight %, 24 hours): 2.5 ± 0.2 μm
Average droplet size ([5]; 1 weight %, aged 3-months): 4.7 ± 0.8 μm
Average droplet size ([5]; 2 weight %, 24 hours): 1.9 ± 0.1 μm
Average droplet size ([5]; 2 weight %, aged 3-months): 3.0 ± 0.4 μm

Compound: CCNC(=O)CCCCCCCC=CCCCCCCC(C)OC1OC(CO)C(O)C(O)C1OC1OC(CO)C(O)C(O)C1O (stereo not drawn) [Compound 23, SL-Ethyl Amide]
Solubility [4]: >40000 µg/mL
emulsion type by Oil Red O staining [1]: O/W
emulsion layer percentage [2]: no emulsion layer was observed
CMC Range [3]: 300-310 10^−6M
MST (minimum surface tension) [3]: 40.9 mN/m

Solubility [4]: <3000 µg/mL
emulsion type by Oil Red O staining [1]: O/W
solubility in distilled water [6]: less than 1 mg/L
emulsion layer percentage [2]: no emulsion layer was observed
Oil displacement activity (diameter of the clearing zone) [8, 11]: 6.5 ± 0.2 cm
Oil displacement activity (diameter of the clearing zone) ([8]; Louisiana Crude on sea water): 6.3 ± 0.9 cm
Oil displacement activity (diameter of the clearing zone) ([8]; Prudhoe Bay Crude on sea water): 6.6 ± 0.7 cm
Compound: CCOC(=O)CCCCCCCC=CCCCCCCC(C)OC1OC(CO)C(O)C(O)C1OC1OC(CO)C(O)C(O)C1O (stereo not drawn) [Compound 7, SL-Ethyl Ester]
Emulsification activity (D610) ([10]; Arabian Crude): 0.91
Emulsification activity (D610) ([10]; Louisiana Crude): 0.42
Emulsification activity (D610) ([10]; Prudhoe Crude): 0.32
CMC Range [7]: 36-40 10^−6M
MST (minimum surface tension) [7]: 37.5 mN/m
